Reference: patent US11753446B2, “Beta-hairpin peptidomimetics” (POLYPHOR AG, priority 2014, dated 2023)
Where a SMILES comes first, the peptide text is derived from it. Bridges are numbered along the chain shown (N, C = ends). [ ]: non-standard residue; d: D form. Gly(cPent) = N[C@H](C(=O)O)C1CCCC1; dDab = NCC[C@@H](N)C(=O)O; Orn = NCCC[C@H](N)C(=O)O; Dab = NCC[C@H](N)C(=O)O

Key:
[1] = system: Klebsiella pneumoniae ATCC 13883; format: cell-based; conditions: ATCC 13883
Protocol: (§1) Stock solutions were kept at +4° C., light protected.
(§2) The selective antimicrobial activities of the peptides were determined in 96-well plates (Greiner, polystyrene) by the standard NCCLS broth microdilution method (National Committee for Clinical Laboratory Standards 1993. Methods for dilution antimicrobial susceptibility tests for bacteria that grow aerobically, 3rd ed. Approved standard M7-A6; National Committee for Clinical laboratory standards, Wayne, Pa.) with slight modifications. Inocula of the microorganisms were diluted into Mueller-Hinton II (MH, cation adjusted) broth and compared with a 0.5 McFarland standard to give appr. 10^6 colony forming units (CFU)/mL. Aliquots (90 μl) of inoculate were added to 10 μl of MH broth+P-80 (Polysorbate 80, 0.002% final concentration) containing the peptide in serial two-fold dilutions. The following microorganisms were used to determine antibiotic selectivity of the peptides: Escherichia coli ATCC 25922, Klebsiella pneumoniae ATCC 13883 and Acinetobacter baumannii DSM 30008.

[2] = system: Escherichia coli ATCC 25922; format: cell-based; conditions: ATCC 25922
Protocol: as §1, §2

[3] = system: Acinetobacter baumannii DSM 30008; format: cell-based; conditions: DSM 30008
Protocol: as §1, §2

[4] = system: human red blood cells (hRBC); assay: Hemolysis: hemolytic activity at 100 μg/mL, 1 h at 37° C.; conditions: red cells of human, 1 h, 100
Protocol: Lyophilized peptides were weighed on a Microbalance (Mettler MT5) and dissolved in sterile water to a final concentration of 1 mg/mL. Stock solutions were kept at +4° C., light protected.
The peptides were tested for their hemolytic activity against human red blood cells (hRBC). Fresh hRBC were washed three times with phosphate buffered saline (PBS) and centrifuged for 5 min at 3000×g. Compounds (100 μg/mL) were incubated with 20% hRBC (v/v) for 1 h at 37° C. and shaking at 300 rpm. The final erythrocyte concentration was approximately 0.9×10^9 cells/mL. A value of 0% and 100% cell lyses, respectively, was determined by incubation of hRBC in the presence of PBS containing 0.001% acetic acid and 2.5% Triton X-100 in H2O, respectively. The samples were centrifuged, the supernatants were 8-fold diluted in PBS buffer and the optical densities (OD) were measured at 540 nm.
Percent hemolysis was calculated as follows: (OD540peptide/OD540H2O)×100%.

SMILES	Klebsiella pneumoniae ATCC 13883 MIC [1] [µg/mL]	Escherichia coli ATCC 25922 MIC [2] [µg/mL]	Acinetobacter baumannii DSM 30008 MIC [3] [µg/mL]	Hemolysis at 100 μg/mL [4] [%]
CC(C)C[C@@H]1NC(=O)[C@H](CCCNC(=N)N)NC(=O)[C@@H](CCN)NC(=O)[C@H](C(C)C)NC(=O)[C@@H]2CSSC[C@H](NC1=O)C(=O)N[C@@H](Cc1ccc(O)cc1)C(=O)N[C@@H](C)C(=O)N[C@@H](CCCN)C(=O)N[C@H](CCN)C(=O)N[C@@H](CCN)C(=O)N[C@@H](Cc1c[nH]c3ccccc13)C(=O)N[C@@H](C)C(=O)N[C@@H](Cc1ccc(O)cc1)C(=O)N2 [Example 23, cyclo(-Leu-Cys-Tyr-Ala-Orn-^DDab-Dab-Trp-Ala-Tyr-Cys-Val-^DDab-Arg-)] (HELM PEPTIDE1{A.[Orn].[NCC[C@@H](N[*:1])C(=O)[*:2]].[Dab].W.A.Y.C.V.[NCC[C@@H](N[*:1])C(=O)[*:2]].R.L.C.Y}$PEPTIDE1,PEPTIDE1,8:R3-13:R3|PEPTIDE1,PEPTIDE1,1:R1-14:R2$$$V2.0)	1	2	0.75	1
CC(C)C[C@@H]1NC(=O)[C@H](CCCNC(=N)N)NC(=O)[C@@H](C)NC(=O)[C@H](C(C)C)NC(=O)[C@@H]2CSSC[C@H](NC1=O)C(=O)N[C@@H](Cc1ccc(O)cc1)C(=O)N[C@@H](CC(N)=O)C(=O)N[C@@H](CCCN)C(=O)N[C@H](CCN)C(=O)N[C@@H](CCN)C(=O)N[C@@H](Cc1c[nH]c3ccccc13)C(=O)N[C@@H](CCN)C(=O)N[C@@H](Cc1ccc(O)cc1)C(=O)N2 [Example 79, cyclo(-Leu-Cys-Tyr-Asn-Orn-^DDab-Dab-Trp-Dab-Tyr-Cys-Val-^DAla-Arg-)] (HELM PEPTIDE1{C.V.[dA].R.L.C.Y.N.[Orn].[NCC[C@@H](N[*:1])C(=O)[*:2]].[Dab].W.[Dab].Y}$PEPTIDE1,PEPTIDE1,1:R3-6:R3|PEPTIDE1,PEPTIDE1,1:R1-14:R2$$$V2.0)	1	1	1.5	1
CC(C)C[C@@H]1NC(=O)[C@H](CCCNC(=N)N)NC(=O)[C@@H](CCN)NC(=O)[C@H](C(C)C)NC(=O)[C@@H]2CSSC[C@H](NC1=O)C(=O)N[C@@H](Cc1ccc(O)cc1)C(=O)N[C@@H](CCC(N)=O)C(=O)N[C@@H](CCCN)C(=O)N[C@H](CCN)C(=O)N[C@@H](CCN)C(=O)N[C@@H](Cc1c[nH]c3ccccc13)C(=O)N[C@@H](CO)C(=O)N[C@@H](Cc1ccc(O)cc1)C(=O)N2 [Example 62, cyclo(-Leu-Cys-Tyr-Gln-Orn-^DDab-Dab-Trp-Ser-Tyr-Cys-Val-^DDab-Arg-)] (HELM PEPTIDE1{C.V.[NCC[C@@H](N[*:1])C(=O)[*:2]].R.L.C.Y.Q.[Orn].[NCC[C@@H](N[*:1])C(=O)[*:2]].[Dab].W.S.Y}$PEPTIDE1,PEPTIDE1,1:R3-6:R3|PEPTIDE1,PEPTIDE1,1:R1-14:R2$$$V2.0)	1	0.375	0.625	2
CC(C)C[C@@H]1NC(=O)[C@H](CCCNC(=N)N)NC(=O)[C@@H](CCN)NC(=O)[C@H](C(C)C)NC(=O)[C@@H]2CSSC[C@H](NC1=O)C(=O)N[C@@H](Cc1ccc(O)cc1)C(=O)N[C@@H](CC(N)=O)C(=O)N[C@@H](CCN)C(=O)N[C@H](CCN)C(=O)N[C@@H](CCN)C(=O)N[C@@H](Cc1c[nH]c3ccccc13)C(=O)N[C@@H](CO)C(=O)N[C@@H](Cc1ccc(O)cc1)C(=O)N2 [Example 56, cyclo(-Leu-Cys-Tyr-Asn-Dab-^DDab-Dab-Trp-Ser-Tyr-Cys-Val-^DDab-Arg-)] (HELM PEPTIDE1{C.V.[NCC[C@@H](N[*:1])C(=O)[*:2]].R.L.C.Y.N.[Dab].[NCC[C@@H](N[*:1])C(=O)[*:2]].[Dab].W.S.Y}$PEPTIDE1,PEPTIDE1,1:R3-6:R3|PEPTIDE1,PEPTIDE1,1:R1-14:R2$$$V2.0)	1	1	0.625	1
CC(C)C[C@@H]1NC(=O)[C@H](CCN)NC(=O)[C@@H](CCN)NC(=O)[C@H](C(C)C)NC(=O)[C@@H]2CSSC[C@H](NC1=O)C(=O)N[C@@H](Cc1ccc(O)cc1)C(=O)N[C@@H](CC(N)=O)C(=O)N[C@@H](CCCN)C(=O)N[C@H](CCN)C(=O)N[C@@H](CCN)C(=O)N[C@@H](Cc1c[nH]c3ccccc13)C(=O)N[C@@H](CO)C(=O)N[C@@H](Cc1ccc(O)cc1)C(=O)N2 [Example 51, cyclo(-Leu-Cys-Tyr-Asn-Orn-^DDab-Dab-Trp-Ser-Tyr-Cys-Val-^DDab-Dab-)] (HELM PEPTIDE1{C.V.[NCC[C@@H](N[*:1])C(=O)[*:2]].[Dab].L.C.Y.N.[Orn].[NCC[C@@H](N[*:1])C(=O)[*:2]].[Dab].W.S.Y}$PEPTIDE1,PEPTIDE1,1:R3-6:R3|PEPTIDE1,PEPTIDE1,1:R1-14:R2$$$V2.0)	0.75	0.75	0.75	2
CC(C)C[C@@H]1NC(=O)[C@@H]2CCCN2C(=O)[C@@H](C)NC(=O)[C@H](CO)NC(=O)[C@@H]2CCNC(=O)C[C@H](NC1=O)C(=O)N[C@@H](Cc1ccc(O)cc1)C(=O)N[C@@H](CCN)C(=O)N[C@@H](CCCN)C(=O)N[C@H](CCN)C(=O)N[C@@H](CCN)C(=O)N[C@@H](Cc1c[nH]c3ccccc13)C(=O)N[C@@H](CCN)C(=O)N[C@@H](Cc1ccc(O)cc1)C(=O)N2 [Example 77, cyclo(-Leu-Asp-Tyr-Dab-Orn-^DDab-Dab-Trp-Dab-Tyr-Dab-Ser-^DAla-Pro-)] (HELM PEPTIDE1{L.D.Y.[Dab].[Orn].[NCC[C@@H](N[*:1])C(=O)[*:2]].[Dab].W.[Dab].Y.[Dab].S.[dA].P}$PEPTIDE1,PEPTIDE1,2:R3-11:R3|PEPTIDE1,PEPTIDE1,1:R1-14:R2$$$V2.0)	2	1.5	3	1
CC(C)[C@@H]1NC(=O)[C@@H]2CSSC[C@H](NC(=O)[C@H](C3CCCC3)NC(=O)[C@H](CCCNC(=N)N)NC(=O)[C@@H](CCN)NC1=O)C(=O)N[C@@H](Cc1ccc(O)cc1)C(=O)N[C@@H](CC(N)=O)C(=O)N[C@@H](CCCN)C(=O)N[C@H](CCN)C(=O)N[C@@H](CCN)C(=O)N[C@@H](Cc1c[nH]c3ccccc13)C(=O)N[C@@H](CO)C(=O)N[C@@H](Cc1ccc(O)cc1)C(=O)N2 [Example 59, cyclo(-Cpg-Cys-Tyr-Asn-Orn-^DDab-Dab-Trp-Ser-Tyr-Cys-Val-^DDab-Arg-)] (cyclo(CV[dDab]R[Gly(cPent)]CYN[Orn][dDab][Dab]WSY); disulfide 1-6)	0.75	1	0.75	1
CC(C)C[C@@H]1NC(=O)[C@H](CCCNC(=N)N)NC(=O)[C@@H](CCN)NC(=O)[C@H](C(C)C)NC(=O)[C@@H]2CSSC[C@H](NC1=O)C(=O)N[C@@H](Cc1ccc(O)cc1)C(=O)N[C@@H](CC(N)=O)C(=O)N[C@@H](CCCN)C(=O)N[C@H](CCN)C(=O)N[C@@H](CCN)C(=O)N[C@@H](Cc1c[nH]c3ccccc13)C(=O)N[C@@H](CC(N)=O)C(=O)N[C@@H](Cc1ccc(O)cc1)C(=O)N2 [Example 53, cyclo(-Leu-Cys-Tyr-Asn-Orn-^DDab-Dab-Trp-Asn-Tyr-Cys-Val-^DDab-Arg-)] (HELM PEPTIDE1{C.V.[NCC[C@@H](N[*:1])C(=O)[*:2]].R.L.C.Y.N.[Orn].[NCC[C@@H](N[*:1])C(=O)[*:2]].[Dab].W.N.Y}$PEPTIDE1,PEPTIDE1,1:R3-6:R3|PEPTIDE1,PEPTIDE1,1:R1-14:R2$$$V2.0)	1	1	1.5	1
